For one assay, the system named is HuapoAI transgenic mice. Briefly: Evaluation of triglyceride and cholesterol level in HuapoAI transgenic mice. It is filed as in vivo. Conditions: Mus musculus, 168 h, human apoAI transgenic mice, 30 mg/kg oral gavage daily for 7 days; for change in vivo at 30 mg/kg: FPLC area under the curve, over mice receiving vehicle, read-out: % HDLc Increase; for inhibition in vivo at 30 mg/kg: serum 3 h after dosing, read-out: Reduction in Triglyceride Serum Level. An outline of the steps:
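Mice got daily oral gavage doses for 7 days, and blood was drawn by cardiac puncture under isoflurane 3 h after the final dose. Serum triglycerides and total cholesterol were measured colorimetrically against standard curves. VLDL, LDL and HDL cholesterol came from Superose 6 FPLC in PBS-EDTA with in-line detection, as peak areas.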

Another assay deals with db/db mice. Briefly: Evaluation of glucose levels in db/db mice. The class given is in vivo. Conditions: Mus musculus, 168 h, 30 mg/kg oral gavage daily for 7 days, 100% = glucose not different from lean values, read-out: Glucose Normalisation. How it is done:
Five week old male diabetic (db/db) mice [C57BlKs/j-m+/+ Lepr(db), Jackson Laboratory, Bar Harbor, Me.] or lean littermates (db+) were housed 6 per cage (10″×20″×8″ with aspen chip bedding) with food (Purina 5015) and water available at all times. After an acclimation period of 2 weeks, animals were individually identified by ear notches, weighed, and bled via the tail vein for determination of initial glucose levels. Blood was collected (100 μl) from unfasted animals by wrapping each mouse in a towel, cutting the tip of the tail with a scalpel, and milking blood from the tail into a heparinized capillary tube (Fisher) balanced on the edge of the bench. Sample was discharged into a heparinized microtainer with gel separator (VWR) and retained on ice. Plasma was obtained after centrifugation at 4° C. and glucose measured immediately. Remaining plasma was frozen until the completion of the experiment, when glucose and triglycerides were assayed in all samples. Animals were grouped based on initial glucose levels and body weights. Beginning the following morning, mice were dosed daily by oral gavage for 7 days using a 20 gauge, 1½″ curved disposable feeding needle. Treatments were test compounds (30 mg/kg), a positive control agent (30 mg/kg) or vehicle [1% carboxymethylcellulose (w/v)/0.25% Tween80 (w/v); 0.3 ml/mouse]. On day 7, mice were weighed and bled (tail vein) 3 hours after dosing. Twenty-four hours after the 7th dose (i.e., day 8), animals were bled again (tail vein). Samples obtained from conscious animals on days 0, 7 and 8 were assayed for glucose. After the 24 hour bleed, animals were weighed and dosed for the final time. Three hours after dosing on day 8, animals were anesthetized by inhalation of isoflurane and blood obtained via cardiac puncture (0.5-0.7 ml). Whole blood was transferred to serum separator tubes, chilled on ice and permitted to clot. Serum was obtained after centrifugation at 4° C. and frozen until analysis for compound levels. After sacrifice by cervical dislocation, the liver, heart and epididymal fat pads were excised and weighed.
The animals dosed with vehicle had average triglycerides values of 170-230 mg/dl, which were reduced by the positive PPARγ control (70-120 mg/dl with a mean reduction of 50%). Male db/db mice were hyperglycemic (average glucose of 680-730 mg/dl on the 7th day of treatment), while lean animals had average glucose levels between 190-230 mg/dl.
Glucose was measured […] using commercially purchased reagents (Sigma #315-500). According to the manufacturers, the procedures were modified from published work (McGowan, M. W., Artiss, J. D., Strandbergh, D. R. & Zak, B. Clin Chem, 20:470-5 (1974) and Keston, A. Specific colorimetric enzymatic analytical reagents for glucose. Abstract of papers 129th Meeting ACS, 31C (1956).); and depend on the release of a mole of hydrogen peroxide for each mole of analyte, coupled with a color reaction first described by Trinder (Trinder, P. Determination of glucose in blood using glucose oxidase with an alternative oxygen acceptor. Ann Clin Biochem, 6:24 (1969)). The absorbance of the dye produced is linearly related to the analyte in the sample. The assays were further modified in our laboratory for use in a 96 well format. Standards (Sigma #339-11, Sigma #16-11, and Sigma #CC0534 for glucose, triglycerides and total cholesterol, respectively), quality control plasma (Sigma # A2034), and samples (2 or 5 μl/well) were measured in duplicate using 200 μl of reagent. An additional aliquot of sample, pipetted to a third well and diluted in 200 μl water, provided a blank for each specimen. Plates were incubated at room temperature (18, 15, and 10 minutes for glucose, triglycerides and total cholesterol, respectively) on a plate shaker (DPC Micormix 5) and absorbance read at 500 nm (glucose and total cholesterol) or 540 nm (triglycerides) on a plate reader (Wallac Victor 1420). […]

Turning to `COc1ccc(OC(C)(Cc2ccc(OCCc3nc(-c4cccs4)oc3C)cc2)C(=O)O)cc1` (centres unmarked) [Example 19, 2-Methyl-3-{4-[2-(5-methyl-2-thiophen-2-yl-oxazol-4-yl)-ethoxy]-phenyl}-2-(4-methoxyphenoxy)-propionic acid], in the assay with HuapoAI transgenic mice, the change in vivo at 30 mg/kg was found to be 89%. Also, the inhibition in vivo at 30 mg/kg in the assay with HuapoAI transgenic mice is 40%; in the assay with db/db mice, 95%.

Consider `Cc1oc(-c2ccccc2)nc1CCOc1ccc(CC(C)(Oc2ccc3c(c2)OCO3)C(=O)O)cc1` (centres unmarked) [Example 78, 2-(Benzo[1,3]dioxol-5-yloxy)-2-methyl-3-{4-[2-(5-methyl-2-phenyl-oxazol-4-yl)-ethoxy]-phenyl}-propionic acid], for which, in the assay with HuapoAI transgenic mice, the change in vivo at 30 mg/kg turned out to be 95% and the inhibition in vivo at 30 mg/kg is 64.8%. Further, the inhibition in vivo at 30 mg/kg with db/db mice is 86%.

Consider `Cc1oc(C2CCCCC2)nc1CCOc1ccc(CC(C)(Oc2ccc3c(c2)OCO3)C(=O)O)cc1` (centres unmarked) [Example 80, 2-(Benzo[1,3]dioxol-5-yloxy)-3-{4-[2-(2-cyclohexyl-5-methyl-oxazol-4-yl)-ethoxy]-phenyl}-2-methyl-propionic acid], for which, in the assay with HuapoAI transgenic mice, the change in vivo at 30 mg/kg is 123% and the inhibition in vivo at 30 mg/kg was found to be 36.6%. In the assay on db/db mice, the inhibition in vivo at 30 mg/kg came to 83%.

Take `Cc1oc(-c2cccs2)nc1CCOc1ccc(CC(C)(Oc2cccc(F)c2)C(=O)O)cc1` (centres unmarked) [Example 22, 2-(3-Fluoro-phenoxy)-2-methyl-3-{4-[2-(5-methyl-2-thiophen-2-yl-oxazol-4-yl)-ethoxy]-phenyl}-propionic acid]: in the assay with HuapoAI transgenic mice, the change in vivo at 30 mg/kg was 29% and the inhibition in vivo at 30 mg/kg was found to be 19.5%. Besides, the inhibition in vivo at 30 mg/kg in the assay with db/db mice is 85%.

As to `Cc1oc(C2CCCCC2)nc1CCOc1ccc(CC(C)(Oc2ccc(C(F)(F)F)cc2)C(=O)O)cc1` (centres unmarked) [Example 52, 3-{4-[2-(2-Cyclohexyl-5-methyl-oxazol-4-yl)-ethoxy]-phenyl}-2-methyl-2-(4-trifluoromethyl-phenoxy)-propionic acid], the change in vivo at 30 mg/kg in the assay with HuapoAI transgenic mice was 185%. Also, the inhibition in vivo at 30 mg/kg was 75.9% in the assay on HuapoAI transgenic mice and 98% in the assay with db/db mice.

Consider `Cc1oc(-c2cccs2)nc1CCOc1ccc(CC(C)(Oc2ccc(C(C)(C)C)cc2)C(=O)O)cc1` (centres unmarked) [Example 17, 2-Methyl-3-{4-[2-(5-methyl-2-thiophen-2-yl-oxazol-4-yl)-ethoxy]-phenyl}-2-(4-tert-butylphenoxy)-propionic acid], for which, in the assay with HuapoAI transgenic mice, the change in vivo at 30 mg/kg was found to be 119% and the inhibition in vivo at 30 mg/kg is 78.7%. Further, the inhibition in vivo at 30 mg/kg in the assay on db/db mice is 112%.

As for `Cc1oc(-c2cccs2)nc1CCOc1ccc(CC(C)(Oc2cccc(C(C)(C)C)c2)C(=O)O)cc1` (centres unmarked) [Example 25, 2-(3-tert-Butyl-phenoxy)-2-methyl-3-{4-[2-(5-methyl-2-thiophen-2-yl-oxazol-4-yl)-ethoxy]-phenyl}-propionic acid], in the assay with HuapoAI transgenic mice, the change in vivo at 30 mg/kg was determined as 8% and the inhibition in vivo at 30 mg/kg is 35.5%. Further, the inhibition in vivo at 30 mg/kg in the assay on db/db mice amounted to 73%.

In the case of `Cc1oc(-c2cccs2)nc1CCOc1ccc(CC(C)(Oc2ccc(C(F)(F)F)cc2)C(=O)O)cc1` (centres unmarked) [Example 51, 2-Methyl-3-{4-[2-(5-methyl-2-thiophen-2-yl-oxazol-4-yl)-ethoxy]-phenyl}-2-(4-trifluoromethyl-phenoxy)-propionic acid], the change in vivo at 30 mg/kg in the assay with HuapoAI transgenic mice was found to be 122%. Besides, the values for the inhibition in vivo at 30 mg/kg in the assay with HuapoAI transgenic mice and with db/db mice were 72.8% and 88%, respectively.

For `Cc1ccc(OC(C)(Cc2ccc(OCCc3nc(-c4cccs4)oc3C)cc2)C(=O)O)cc1C` (centres unmarked) [Example 36, 2-(3,4-Dimethyl-phenoxy)-2-methyl-3-{4-[2-(5-methyl-2-thiophen-2-yl-oxazol-4-yl)-ethoxy]-phenyl}-propionic acid], in the assay with HuapoAI transgenic mice, the change in vivo at 30 mg/kg is 30% and the inhibition in vivo at 30 mg/kg came to 23%. In the assay on db/db mice, the inhibition in vivo at 30 mg/kg turned out to be 92%.

Turning to `Cc1cccc(OC(C)(Cc2ccc(OCCc3nc(-c4cccs4)oc3C)cc2)C(=O)O)c1` (centres unmarked) [Example 61, 2-Methyl-3-{4-[2-(5-methyl-2-thiophen-2-yl-oxazol-4-yl)-ethoxy]-phenyl}-2-m-tolyloxy-propionic acid], in the assay on HuapoAI transgenic mice, the change in vivo at 30 mg/kg was found to be 72% and the inhibition in vivo at 30 mg/kg was 17.6%. Further, the inhibition in vivo at 30 mg/kg with db/db mice worked out at 79%.

As to `Cc1oc(C2CCCCC2)nc1CCOc1ccc(CC(C)(Oc2ccc(F)cc2)C(=O)O)cc1` (centres unmarked) [Example 65, 3-{4-[2-(2-Cyclohexyl-5-methyl-oxazol-4-yl)-ethoxy]-phenyl}-2-(4-fluoro-phenoxy)-2-methyl-propionic acid], in the assay with HuapoAI transgenic mice, the change in vivo at 30 mg/kg was 75% and the inhibition in vivo at 30 mg/kg was determined as 54%. In addition, the inhibition in vivo at 30 mg/kg with db/db mice stood at 99%.

On to `Cc1oc(-c2cccs2)nc1CCOc1ccc(CC(C)(Oc2cccc(C(F)(F)F)c2)C(=O)O)cc1` (centres unmarked) [Example 71, 2-Methyl-3-{4-[2-(5-methyl-2-thiophen-2-yl-oxazol-4-yl)-ethoxy]-phenyl}-2-(3-trifluoromethyl-phenoxy)-propionic acid], for which the change in vivo at 30 mg/kg in the assay with HuapoAI transgenic mice worked out at 34%. The inhibition in vivo at 30 mg/kg in the assay on db/db mice was determined as 97%.

`Cc1ccc(OC(C)(Cc2ccc(OCCc3nc(C4CCCCC4)oc3C)cc2)C(=O)O)cc1C` (centres unmarked) [Example 35, 3-{4-[2-(2-Cyclohexyl-5-methyl-oxazol-4-yl)-ethoxy]-phenyl}-2-(3,4-dimethyl-phenoxy)-2-methyl-propionic acid]: in the assay with HuapoAI transgenic mice, the change in vivo at 30 mg/kg is 77% and the inhibition in vivo at 30 mg/kg was found to be 32.3%. The inhibition in vivo at 30 mg/kg with db/db mice was 84%.

For the molecule `Cc1ccc(OC(C)(Cc2ccc(OCCc3nc(C4CCCCC4)oc3C)cc2)C(=O)O)cc1` (centres unmarked) [Example 41, 3-{4-[2-(2-Cyclohexyl-5-methyl-oxazol-4-yl)-ethoxy]-phenyl}-2-methyl-2-p-tolyloxy-propionic acid], in the assay with HuapoAI transgenic mice, the change in vivo at 30 mg/kg was 96% and the inhibition in vivo at 30 mg/kg was 57.8%. Besides, the inhibition in vivo at 30 mg/kg in the assay on db/db mice worked out at 101%.

As to `Cc1oc(C2(C)CCCCC2)nc1CCOc1ccc(CC(C)(Oc2ccccc2)C(=O)O)cc1` (centres unmarked) [Example 9, 2-Methyl-3-(4-{2-[5-methyl-2-(1-methylcyclohexyl)oxazol-4-yl]ethoxy}phenyl)-2-phenoxypropionic acid], the change in vivo at 30 mg/kg with HuapoAI transgenic mice amounted to 123%. Besides, the inhibition in vivo at 30 mg/kg stood at 19.8% with HuapoAI transgenic mice and 95% in the assay with db/db mice.
